# Data published in patent publication US9237747B2, “Herbicidal compositions comprising 4-amino-3-chloro-5-fluoro-6-(4-chloro-2-fluoro-3-methoxyphenyl) pyridine-2-carboxylic acid or a derivative thereof and insecticides” (priority 2013, dated 2016).
# Counter-ions that a name gives are not always drawn. Like-named read-outs stand apart in the source and are kept apart here.
# How the values were obtained:
# DIGSA = type: in vivo, Digitaria sanguinalis
# Method: (§1) Seeds or nutlets of the desired test plant species were planted in a soil matrix prepared by mixing a loam or sandy loam soil (e.g., 28.6 percent silt, 18.8 percent clay, and 52.6 percent sand, with a pH of about 5.8 and an organic matter content of about 1.8 percent) and calcareous grit in an 80 to 20 ratio. The soil matrix was contained in plastic pots with a volume of 1 quart and a surface area of 83.6 square centimeters (cm^2). […] The plants were grown for 8-22 days in a greenhouse with an approximate 14 hour (h) photoperiod which was maintained at about 29° C. during the day and 26° C. during the night. Nutrients (Peters Excel® 15-5-15 5-Ca 2-Mg and iron chelate) were applied in the irrigation solution as needed and water was added on a regular basis. Supplemental lighting was provided with overhead metal halide 1000-Watt lamps as necessary. The plants were employed for testing when they reached the first through fourth true leaf stage.
# (§2) Treatments consisted of the acid or esters of 4-amino-3-chloro-6-(4-chloro-2-fluoro-3-methoxyphenyl)-5-fluoropyridine-2-carboxylic acid (Compound A), each formulated as an SC (suspension concentrate), and various insecticidal components alone and in combination. Forms of compound A were applied on an acid equivalent basis.
# (§3) For treatments comprised of formulated compounds, measured amounts of compounds were placed individually in 25 mL glass vials and diluted in a volume of 1.25% volume per volume (v/v) Agri-Dex® crop oil concentrate to obtain 12× stock solutions. […] Application solutions were prepared by adding an appropriate amount of each stock solution (e.g., 1 mL) and diluted to the appropriate final concentrations with the addition of […] of an aqueous mixture of 1.25% (v/v) crop oil concentrate so that the final spray solutions contained 1.25+/−0.05% (v/v) crop oil concentrate.
# (§4) As required, additional water and/or 97:3 v/v acetone/DMSO was added to individual application solutions so that the final acetone and DMSO concentrations of the application solutions being compared were 8.1% and 0.25%, respectively.
# (§5) All stock solutions and applications solutions were visually inspected for compound compatibility prior to application. Spray solutions were applied to the plant material with an overhead Mandel track sprayer equipped with 8002E nozzles calibrated to deliver 187 L/ha over an application area of 0.503 square meters (m^2) at a spray height of 18 to 20 inches (46 to 50 cm) above average plant canopy height. Control plants were sprayed in the same manner with the solvent blank.
# (§6) The treated plants and control plants were placed in a greenhouse as described above and watered by sub-irrigation to prevent wash-off of the test compounds. After approximately 3 weeks, the condition of the test plants as compared to that of the untreated plants was determined visually and scored on a scale of 0 to 100 percent where 0 corresponds to no injury or growth inhibition and 100 corresponds to complete kill.
# (§7) Colby's equation was used to determine the herbicidal effects expected from the mixtures (Colby, S. R. Calculation of the synergistic and antagonistic response of herbicide combinations. Weeds 1967, 15, 20-22.).
# (§8) The following equation was used to calculate the expected activity of mixtures containing two active ingredients, A and B: Expected=A+B−(A×B/100)
# ECHCG = type: in vivo, Echinochloa crus-galli
# Method: as §1, §2, §3, §4, §5, §6, §7, §8
# LEFCH = assay: whole plant or invertebrate; type: in vivo, Leptochloa chinensis
# Method: as §1, §2, §3, §4, §5, §6, §7, §8
# IPOHE = type: in vivo, Ipomoea hederacea
# Method: as §1, §2, §3, §4, §5, §6, §7, §8
# BRAPP = assay: Postemergence foliar-applied weed control, direct-seeded rice (greenhouse); type: in vivo, Brachiaria platyphylla; conditions: 50 g ai/ha alone
# From the text: Seeds or nutlets of the desired test plant species were planted in a soil matrix prepared by mixing a loam or sandy loam soil (e.g., 28.6 percent silt, 18.8 percent clay, and 52.6 percent sand, with a pH of about 5.8 and an organic matter content of about 1.8 percent) and calcareous grit in an 80 to 20 ratio. The soil matrix was contained in plastic pots with a volume of 1 quart and a surface area of 83.6 square centimeters (cm^2). When required to ensure good germination and healthy plants, a fungicide treatment and/or other chemical or physical treatment was applied. The plants were grown for 8-22 days in a greenhouse with an approximate 14 hour (h) photoperiod which was maintained at about 29° C. during the day and 26° C. during the night. Nutrients (Peters Excel® 15-5-15 5-Ca 2-Mg and iron chelate) were applied in the irrigation solution as needed and water was added on a regular basis. Supplemental lighting was provided with overhead metal halide 1000-Watt lamps as necessary. The plants were employed for testing when they reached the first through fourth true leaf stage.
# as §2
# Treatment requirements were calculated based upon the rates being tested, the concentration of active ingredient or acid equivalent in the formulation, and a 12 milliliter (mL) application volume at a rate of 187 liters per hectare (L/ha).
# as §3, §4, §5, §6, §7, §8
# ECHCO = assay: as above; type: in vivo, Echinochloa colonum; conditions: 19 DAA
# Method: as §1, §2, §3, §4, §5, §6, §7, §8
compound,measurement,setting,value
"CC1(C)C(C=C(Cl)Cl)C1C(=O)OC(C#N)c1cccc(Oc2ccccc2)c1 (racemic) [Cypermethrin, (RS)-α-cyano-3-phenoxybenzyl(1RS)-cis-trans-3-(2,2-dichlorovinyl)-2,2-dimethylcyclopropanecarboxylate, reference compound]",Visual Weed Control (%) - 21 DAA DIGSA Obs,DIGSA; 15 g ai/ha alone,0%
same,Visual Weed Control (%) - 21 DAA DIGSA Obs,DIGSA; 30 g ai/ha alone,0%
same,Visual Weed Control (%) - 21 DAA DIGSA Obs,DIGSA; 60 g ai/ha alone,0%
same,Visual Weed Control (%) - 22 DAA ECHCG Obs,ECHCG; 7.5 g ai/ha alone,0%
same,Visual Weed Control (%) - 22 DAA ECHCG Obs,ECHCG; 22.5 g ai/ha alone,0%
same,Visual Weed Control (%) - 22 DAA ECHCG Obs,ECHCG; 60 g ai/ha alone,0%
same,pest or weed control at […],"LEFCH; Dinebra chinensis, post-emergence, 528 h, 7.5 g ai/ha alone, read-out: Visual Weed Control (%) - 22 DAA LEFCH Obs",0%
same,pest or weed control at 22.5 g/ha,"LEFCH; Dinebra chinensis, post-emergence, 528 h, 22.5 g ai/ha alone, read-out: Visual Weed Control (%) - 22 DAA LEFCH Obs",0%
same,pest or weed control at 60 g/ha,"LEFCH; Dinebra chinensis, post-emergence, 528 h, 60 g ai/ha alone, read-out: Visual Weed Control (%) - 22 DAA LEFCH Obs",0%
same,Visual Weed Control (%) - 22 DAA IPOHE Obs,IPOHE; 7.5 g ai/ha alone,0%
same,Visual Weed Control (%) - 22 DAA IPOHE Obs,IPOHE; 22.5 g ai/ha alone,0%
same,Visual Weed Control (%) - 22 DAA IPOHE Obs,IPOHE; 60 g ai/ha alone,0%
CC1(C)[C@H](C(=O)O[C@H](C#N)c2cccc(Oc3ccccc3)c2)[C@@H]1/C=C(\Cl)C(F)(F)F (racemic) [Lambda cyhalothrin],Visual Weed Control (%) - 21 DAA ECHCG Obs,"ECHCG; 21 DAA, 35 g ai/ha alone",0%
same,Visual Weed Control (%) - 21 DAA IPOHE Obs,IPOHE; 35 g ai/ha alone,0%
"CN(C)C(CSC(N)=O)CSC(N)=O [Cartap Hydrochloride, S,S′-(2-dimethylaminotrimethylene)bis(thiocarbamate), reference compound]",Visual Weed Control (%) - 22 DAA ECHCG Obs,ECHCG; 250 g ai/ha alone,0%
same,Visual Weed Control (%) - 22 DAA ECHCG Obs,ECHCG; 500 g ai/ha alone,0%
same,Visual Weed Control (%) - 22 DAA IPOHE Obs,IPOHE; 250 g ai/ha alone,10%
same,Visual Weed Control (%) - 22 DAA IPOHE Obs,IPOHE; 500 g ai/ha alone,0%
"N#Cc1nn(-c2c(Cl)cc(C(F)(F)F)cc2Cl)c(N)c1[S+]([O-])C(F)(F)F [Fipronil, 5-amino-[2,6-dichloro-4-(trifluoromethyl)phenyl]-4-[(1R,S)-(trifluoromethyl)sulfinyl]-1H-pyrazole-3-carbonitrile, reference compound]",Visual Weed Control (%) - 20 DAA ECHCG Obs,ECHCG; 50 g ai/ha alone,0%
same,Visual Weed Control (%) - 20 DAA BRAPP Obs,BRAPP,0%
"COP(N)(=O)SC (centres unmarked) [Methamidophos, O,S-dimethyl phosphoramidothioate, reference compound]",Visual Weed Control (%) - 19 DAA IPOHE Obs,IPOHE; 112 g ai/ha alone,0%
same,Visual Weed Control (%) - 19 DAA IPOHE Obs,IPOHE; 224 g ai/ha alone,0%
same,Visual Weed Control (%) - 19 DAA ECHCO Obs,ECHCO; 112 g ai/ha alone,0%
same,Visual Weed Control (%) - 19 DAA ECHCO Obs,ECHCO; 224 g ai/ha alone,0%
spinetoram,Visual Weed Control (%) - 19 DAA LEFCH Obs,LEFCH; 30 g ai/ha alone,0%
same,Visual Weed Control (%) - 19 DAA LEFCH Obs,LEFCH; 60 g ai/ha alone,0%
same,Visual Weed Control (%) - 19 DAA LEFCH Obs,LEFCH; 120 g ai/ha alone,0%
same,Visual Weed Control (%) - 19 DAA ECHCO Obs,ECHCO; 30 g ai/ha alone,0%
same,Visual Weed Control (%) - 19 DAA ECHCO Obs,ECHCO; 60 g ai/ha alone,0%
same,Visual Weed Control (%) - 19 DAA ECHCO Obs,ECHCO; 120 g ai/ha alone,0%
spinosad [reference compound],Visual Weed Control (%) - 21 DAA LEFCH Obs,LEFCH; 140 g ai/ha alone,0%
same,Visual Weed Control (%) - 21 DAA LEFCH Obs,LEFCH; 280 g ai/ha alone,0%
same,Visual Weed Control (%) - 21 DAA IPOHE Obs,IPOHE; 70 g ai/ha alone,0%
same,Visual Weed Control (%) - 21 DAA IPOHE Obs,IPOHE; 140 g ai/ha alone,0%
same,Visual Weed Control (%) - 21 DAA IPOHE Obs,IPOHE; 280 g ai/ha alone,0%
